From patent US20130324522A1, “INSECT ODORANT RECEPTOR ANTAGONISTS” (THE ROCKEFELLER UNIVERSITY, priority 2010, published 2013) come the findings set out here.

Molecules are shown by their SMILES.

Common to all, as to assay type: cell-based
The target of one test is T1, mOREG (Mus musculus, UniProt Q920P2).
T1 sequence (Q920P2 1-313): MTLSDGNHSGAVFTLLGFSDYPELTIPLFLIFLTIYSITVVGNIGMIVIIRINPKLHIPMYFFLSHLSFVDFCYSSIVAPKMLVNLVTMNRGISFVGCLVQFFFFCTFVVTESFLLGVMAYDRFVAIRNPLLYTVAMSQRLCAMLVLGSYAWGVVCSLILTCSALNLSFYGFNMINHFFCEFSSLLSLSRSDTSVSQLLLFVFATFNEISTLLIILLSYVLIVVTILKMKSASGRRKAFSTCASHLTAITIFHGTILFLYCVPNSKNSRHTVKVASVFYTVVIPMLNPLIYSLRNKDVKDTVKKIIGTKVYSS
Description: Ca2+-imaging, control receptor mOREG. Particulars: for inhibition at 4 µM: compound applied at 4 μM, read-out: Percent Inhibition mOREG. The method in brief:
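Stable cell lines plated 2 days on poly-D-lysine, loaded with Ca-4 dye 1.5 hr at room temperature, then challenged with odorant in HBSS containing pre-added compounds. Intracellular Ca2+ rise followed by real-time fluorescence, 485 nm excitation/525 nm emission; HBSS and ligand wells serve as negative and positive controls.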

The target of a further test is OR10/OR7 (Anopheles gambiae, UniProt B5U0U7+Q7QCC7). Description: Ca2+-imaging of stable HEK293T cell line OR10/OR7. To be noted: for inhibition at 4 µM: HEK-293T, compound applied at 4 μM, read-out: Percent Inhibition OR10 OR7; for IC50: Table B, read-out: IC50 OR10. The method in brief:
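Stable HEK293T line co-expressing OR10/OR7, plated 2 days on poly-D-lysine, loaded with Ca-4 dye 1.5 hr at room temperature. Compounds premixed into odorant in HBSS and applied on FDSS6000. Ca2+ rise followed by fluorescence at 525 nm (excitation 485 nm).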

The target in test [1] is T2, serotonin receptor (5HT3) (Mus musculus, UniProt P23979).
T2 construct: Full-length cDNAs for mosquito (Anopheles gambiae) odorant receptor; expressed in transfected cells
T2 sequence (P23979 24-489): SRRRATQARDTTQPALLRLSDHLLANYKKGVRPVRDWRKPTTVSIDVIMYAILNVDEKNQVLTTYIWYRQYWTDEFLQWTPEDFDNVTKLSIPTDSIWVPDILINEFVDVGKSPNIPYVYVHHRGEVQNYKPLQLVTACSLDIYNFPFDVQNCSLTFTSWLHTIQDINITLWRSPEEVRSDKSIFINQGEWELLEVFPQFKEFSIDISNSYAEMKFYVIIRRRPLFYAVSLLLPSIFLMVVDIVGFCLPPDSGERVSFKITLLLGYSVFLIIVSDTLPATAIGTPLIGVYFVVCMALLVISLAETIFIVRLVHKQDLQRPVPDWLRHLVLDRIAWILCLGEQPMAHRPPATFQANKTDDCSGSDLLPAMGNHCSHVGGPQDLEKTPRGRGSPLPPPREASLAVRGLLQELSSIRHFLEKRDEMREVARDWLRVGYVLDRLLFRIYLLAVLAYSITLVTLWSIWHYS
Description: Ca2+-imaging of stable Flip-In T-Rex cell line 5HT3. Particulars: for inhibition at 4 µM: compound applied at 4 μM, read-out: Percent Inhibition 5HT3; for IC50: Table B, read-out: IC50 5HT3. In a few lines:
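Flp-In T-REx stable lines (Drosophila Or47a/Or83b or mouse 5HT3), 10,000 cells/well cultured 2 days, induced with tetracycline 1 day before assay.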

Sequence of OR10/OR7 (Q7QCC7 whole entry): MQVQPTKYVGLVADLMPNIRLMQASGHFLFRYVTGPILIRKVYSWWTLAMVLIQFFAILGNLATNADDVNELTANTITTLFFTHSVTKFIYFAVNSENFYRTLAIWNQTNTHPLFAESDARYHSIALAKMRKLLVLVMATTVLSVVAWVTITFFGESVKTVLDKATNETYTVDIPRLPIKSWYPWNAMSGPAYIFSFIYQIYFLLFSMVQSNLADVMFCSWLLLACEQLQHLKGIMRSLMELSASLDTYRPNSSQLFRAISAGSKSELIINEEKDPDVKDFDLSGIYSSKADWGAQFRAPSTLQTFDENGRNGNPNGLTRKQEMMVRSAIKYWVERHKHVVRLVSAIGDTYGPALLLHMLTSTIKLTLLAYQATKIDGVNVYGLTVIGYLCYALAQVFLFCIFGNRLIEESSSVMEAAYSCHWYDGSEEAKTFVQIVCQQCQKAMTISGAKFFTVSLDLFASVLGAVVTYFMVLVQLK
Sequence of OR10/OR7 (B5U0U7 entry or part of it): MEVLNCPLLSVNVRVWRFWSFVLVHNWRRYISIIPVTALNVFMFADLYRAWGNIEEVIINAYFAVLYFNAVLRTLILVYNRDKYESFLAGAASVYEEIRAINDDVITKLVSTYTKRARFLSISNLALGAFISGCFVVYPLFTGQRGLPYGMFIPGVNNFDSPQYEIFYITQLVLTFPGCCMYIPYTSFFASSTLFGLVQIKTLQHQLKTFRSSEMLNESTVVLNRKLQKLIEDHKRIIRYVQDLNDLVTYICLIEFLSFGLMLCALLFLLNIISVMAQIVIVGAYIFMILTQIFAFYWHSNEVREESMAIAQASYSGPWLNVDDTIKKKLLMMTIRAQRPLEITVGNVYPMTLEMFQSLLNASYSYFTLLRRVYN

For the molecule `CCc1cc(N2CCCC2)nc(SCc2ccc(C(=O)N3CCOCC3)o2)n1` [RU-0047568], the inhibition at 4 µM at mOREG was 26 to 50%; on OR10/OR7, greater than 75%; in test [1], 26 to 50%. Further, the IC50 at OR10/OR7 was less than 100 nM.
For `C=CCN(Cc1nccn1Cc1ccccc1F)C(=O)c1cccc(F)c1` [RU-0058232], the inhibition at 4 µM is 26 to 50% at mOREG, greater than 75% on OR10/OR7 and 51 to 74% in test [1]. Further, the 50% inhibitory concentration (IC50) is less than 100 nM on OR10/OR7 and greater than 1000 nM in test [1].
Take `O=C(CCC1CCN(C(=O)c2cccc(-n3cccn3)c2)CC1)Nc1ccccc1` [RU-0032465]: the values for the inhibition at 4 µM (on mOREG; at OR10/OR7; in test [1]) were 26 to 50%, less than 25% and less than 25%, respectively.
In the case of `O=C(c1cccnc1Cl)N1CCOC(COCc2c(Cl)cccc2Cl)C1` (stereo not shown) [RU-0050372], the results for the inhibition at 4 µM (at mOREG; on OR10/OR7; in test [1]) were less than 25%, 26 to 50% and less than 25%, respectively.
On to `C=CCN(Cc1nccn1Cc1ccccc1C)C(=O)CC(C)C` [RU-0058298], for which the inhibition at 4 µM on mOREG is 26 to 50%; on OR10/OR7 it was greater than 75%; in test [1] it was 26 to 50%. Also, the IC50 on OR10/OR7 was less than 100 nM.
For `c1ccc(CNc2nc(NCc3ccco3)nc(N3CCOCC3)n2)cc1` [RU-0020050], the inhibition at 4 µM on mOREG is 26 to 50%; at OR10/OR7, less than 25%; in test [1], 26 to 50%.
With `CCN(CC)c1onc(-c2ccccc2)c1CN(CC1CCCO1)C(=O)c1ccc2c(c1)OCO2` (stereo not shown) [RU-0036875], the IC50 (on mOREG (Table B); in test [1]) was greater than 1000 nM each time. Moreover, the inhibition at 4 µM at mOREG lay within 51 to 74%; at OR10/OR7, 26 to 50%; in test [1] it was 51 to 74%.
On to `Cc1cccc(Cn2ccnc2CN(C(=O)c2ccccc2F)C2CCCCC2)c1` [RU-0047851], for which the inhibition at 4 µM on mOREG was 26 to 50%; on OR10/OR7, greater than 75%; in test [1] it was less than 25%. Besides, the IC50 at OR10/OR7 was less than 100 nM.
`CCN(CC)c1onc(-c2ccccc2)c1CN(CC1CCCO1)C(=O)c1ccco1` (stereo not shown) [RU-0036855]: the figures for the inhibition at 4 µM (at mOREG; on OR10/OR7; in test [1]) were 26 to 50%, less than 25% and less than 25%, respectively.

The inhibition is how much of the control response was suppressed. The term IC50 denotes the concentration that inhibits the measured activity by half.
